Measured values from ChEMBL document CHEMBL2203210, “SAR and in vivo evaluation of 4-aryl-2-aminoalkylpyrimidines as potent and selective Janus kinase 2 (JAK2) inhibitors” (Bioorg Med Chem Lett, 2012).
Converted amounts (≈) assume the structure as drawn.

Biological target: T1, Tyrosine-protein kinase JAK2 (Homo sapiens, UniProt O60674)
Conditions: not given

T1 sequence (O60674 whole entry): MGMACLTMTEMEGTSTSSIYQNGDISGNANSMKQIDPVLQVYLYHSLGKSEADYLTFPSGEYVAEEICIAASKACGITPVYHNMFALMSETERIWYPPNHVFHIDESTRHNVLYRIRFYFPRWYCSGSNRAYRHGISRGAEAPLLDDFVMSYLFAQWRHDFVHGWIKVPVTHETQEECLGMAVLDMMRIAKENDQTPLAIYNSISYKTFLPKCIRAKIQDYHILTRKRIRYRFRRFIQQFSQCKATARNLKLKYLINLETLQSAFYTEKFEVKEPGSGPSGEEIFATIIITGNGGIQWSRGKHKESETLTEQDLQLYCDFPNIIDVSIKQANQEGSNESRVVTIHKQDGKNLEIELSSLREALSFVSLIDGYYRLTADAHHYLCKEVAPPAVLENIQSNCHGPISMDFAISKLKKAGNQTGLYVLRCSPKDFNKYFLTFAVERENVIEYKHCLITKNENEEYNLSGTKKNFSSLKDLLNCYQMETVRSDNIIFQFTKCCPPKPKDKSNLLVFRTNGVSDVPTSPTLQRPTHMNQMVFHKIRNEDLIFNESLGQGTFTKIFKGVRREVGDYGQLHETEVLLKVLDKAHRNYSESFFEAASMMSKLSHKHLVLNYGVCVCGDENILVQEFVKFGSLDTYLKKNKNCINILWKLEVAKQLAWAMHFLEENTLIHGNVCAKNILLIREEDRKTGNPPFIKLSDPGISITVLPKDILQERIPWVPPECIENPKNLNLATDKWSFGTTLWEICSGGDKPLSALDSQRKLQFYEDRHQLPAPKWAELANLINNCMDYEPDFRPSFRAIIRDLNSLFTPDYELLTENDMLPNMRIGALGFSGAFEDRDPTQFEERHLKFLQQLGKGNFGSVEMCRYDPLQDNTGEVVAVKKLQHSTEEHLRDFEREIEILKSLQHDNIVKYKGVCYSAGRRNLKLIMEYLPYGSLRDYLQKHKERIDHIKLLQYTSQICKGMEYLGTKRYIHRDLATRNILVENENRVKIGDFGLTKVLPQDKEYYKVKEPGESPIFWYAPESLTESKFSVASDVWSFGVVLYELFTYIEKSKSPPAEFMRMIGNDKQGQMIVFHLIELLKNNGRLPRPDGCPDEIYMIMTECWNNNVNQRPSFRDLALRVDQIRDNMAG

SMILES | IC50
CC(=O)Nc1ccc(-c2cc(Nc3ccc(N4CCOCC4)cc3)ncn2)cc1 | > 30000 nM
C[C@H](N)C(=O)Nc1ccc(-c2ccnc(Nc3ccc(N4CCOCC4)cc3)n2)cc1 | 1050 nM
N[C@H](CO)C(=O)Nc1ccc(-c2ccnc(Nc3ccc(N4CCOCC4)cc3)n2)cc1 | 622 nM
CC(=O)Nc1ccc(-c2ccnc(NCCCNC(=O)c3c(Cl)cccc3Cl)n2)cc1 | 8140 nM
CC(=O)Nc1ccc(-c2ccnc(Nc3cccc(NC(=O)c4c(Cl)cccc4Cl)n3)n2)cc1 | > 30000 nM
CCN1CCC[C@@H]1C(=O)Nc1ccc(-c2ccnc(Nc3ccc(N4CCOCC4)cc3)n2)cc1 | 1430 nM
O=C1CC[C@H](C(=O)Nc2ccc(-c3ccnc(Nc4ccc(N5CCOCC5)cc4)n3)cc2)N1 | > 30000 nM
O=C(Nc1ccc(-c2ccnc(Nc3ccc(N4CCOCC4)cc3)n2)cc1)[C@H]1CCNC1 | > 30000 nM
CC(=O)Nc1ccc(-c2nc(Nc3ccc(N4CCOCC4)cc3)ncc2F)cc1 | 6490 nM
CC(=O)Nc1ccc(-c2ccnc(NCC3CN(C(=O)c4c(Cl)cccc4Cl)C3)n2)cc1 | > 30000 nM
CC(=O)Nc1ccc(-c2nc(Nc3ccc(N4CCOCC4)cc3)ncc2C(F)(F)F)cc1 | 2700 nM
CC(=O)Nc1ccc(-c2cc(C)nc(Nc3ccc(N4CCOCC4)cc3)n2)cc1 | > 30000 nM
C[C@@H](N)C(=O)Nc1ccc(-c2ccnc(Nc3ccc(N4CCOCC4)cc3)n2)cc1 | 328 nM
CC(=O)Nc1ccc(-c2ccnc(NC3CCCC(NC(=O)c4c(Cl)cccc4Cl)C3)n2)cc1 (configuration not stated) | > 30000 nM
CN1CCC[C@@H]1C(=O)Nc1ccc(-c2ccnc(Nc3ccc(N4CCOCC4)cc3)n2)cc1 | 746 nM

Next, values leading:

IC50 | SMILES
> 30000 nM | CC(=O)Nc1ccc(-c2ccnc(Nc3cccc(NC(=O)c4ccccc4Cl)c3)n2)cc1
975 nM | CC(=O)Nc1ccc(-c2ccnc(Nc3ccc(N4CCOCC4)cc3)n2)cc1
1000 nM | CC(=O)Nc1ccc(-c2ccnc(Nc3ccccc3)n2)cc1
763 nM | CC(=O)Nc1ccc(-c2ccnc(Nc3cccc(NC(=O)c4c(Cl)cccc4Cl)c3)n2)cc1
956 nM | CC(=O)Nc1ccc(-c2ccnc(Nc3cccc(N4CCCCC4)c3)n2)cc1
615 nM | CC(=O)Nc1ccc(-c2ccnc(Nc3cccc(N4CCOCC4)c3)n2)cc1

Biological target: T1, Tyrosine-protein kinase JAK2
Conditions: not given
Remark: another data set of the same source

SMILES | IC50
CC(=O)Nc1ccc(-c2cc(Nc3ccc(N4CCOCC4)cc3)ncn2)cc1 | > 980 nM
C[C@H](N)C(=O)Nc1ccc(-c2ccnc(Nc3ccc(N4CCOCC4)cc3)n2)cc1 | 8.7 nM
N[C@H](CO)C(=O)Nc1ccc(-c2ccnc(Nc3ccc(N4CCOCC4)cc3)n2)cc1 | 2.7 nM
CC(=O)Nc1ccc(-c2ccnc(NCCCNC(=O)c3c(Cl)cccc3Cl)n2)cc1 | 104 nM
CC(=O)Nc1ccc(-c2ccnc(Nc3cccc(NC(=O)c4c(Cl)cccc4Cl)n3)n2)cc1 | 130 nM
CCN1CCC[C@@H]1C(=O)Nc1ccc(-c2ccnc(Nc3ccc(N4CCOCC4)cc3)n2)cc1 | 9.1 nM
O=C1CC[C@H](C(=O)Nc2ccc(-c3ccnc(Nc4ccc(N5CCOCC5)cc4)n3)cc2)N1 | 0.9 nM
O=C(Nc1ccc(-c2ccnc(Nc3ccc(N4CCOCC4)cc3)n2)cc1)[C@H]1CCNC1 | 5.7 nM
CC(=O)Nc1ccc(-c2nc(Nc3ccc(N4CCOCC4)cc3)ncc2F)cc1 | 4.4 nM
CC(=O)Nc1ccc(-c2ccnc(NCC3CN(C(=O)c4c(Cl)cccc4Cl)C3)n2)cc1 | 5000 nM
CC(=O)Nc1ccc(-c2nc(Nc3ccc(N4CCOCC4)cc3)ncc2C(F)(F)F)cc1 | 39.6 nM
CC(=O)Nc1ccc(-c2cc(C)nc(Nc3ccc(N4CCOCC4)cc3)n2)cc1 | > 980 nM
C[C@@H](N)C(=O)Nc1ccc(-c2ccnc(Nc3ccc(N4CCOCC4)cc3)n2)cc1 | 1.7 nM
CC(=O)Nc1ccc(-c2ccnc(NC3CCCC(NC(=O)c4c(Cl)cccc4Cl)C3)n2)cc1 (configuration not stated) | > 980 nM
CN1CCC[C@@H]1C(=O)Nc1ccc(-c2ccnc(Nc3ccc(N4CCOCC4)cc3)n2)cc1 | 5.2 nM

More lines, now with the values ahead:

IC50 | SMILES
6.9 nM | CC(=O)Nc1ccc(-c2ccnc(Nc3cccc(NC(=O)c4ccccc4Cl)c3)n2)cc1
12.8 nM | CC(=O)Nc1ccc(-c2ccnc(Nc3ccccc3)n2)cc1
12.6 nM | CC(=O)Nc1ccc(-c2ccnc(Nc3cccc(NC(=O)c4c(Cl)cccc4Cl)c3)n2)cc1
6.5 nM | CC(=O)Nc1ccc(-c2ccnc(Nc3cccc(N4CCCCC4)c3)n2)cc1
4.2 nM | CC(=O)Nc1ccc(-c2ccnc(Nc3cccc(N4CCOCC4)c3)n2)cc1

Test system: not listed separately
Assay: Kinetic solubility of the compound
Format: physicochemical
Conditions: read-out: Kinetic_solubility

SMILES | solubility kinetic
CC(=O)Nc1ccc(-c2ccnc(NCCCNC(=O)c3c(Cl)cccc3Cl)n2)cc1 | 6.5 µM (≈ 2.98 µg/mL)
CC(=O)Nc1ccc(-c2ccnc(Nc3ccccc3)n2)cc1 | 234 µM (≈ 71.2 µg/mL)

Biological target: T1, Tyrosine-protein kinase JAK2
Conditions: not given
Remark: another data set of the same source

SMILES | IC50
C[C@H](N)C(=O)Nc1ccc(-c2ccnc(Nc3ccc(N4CCOCC4)cc3)n2)cc1 | 1510 nM
N[C@H](CO)C(=O)Nc1ccc(-c2ccnc(Nc3ccc(N4CCOCC4)cc3)n2)cc1 | 1390 nM
CCN1CCC[C@@H]1C(=O)Nc1ccc(-c2ccnc(Nc3ccc(N4CCOCC4)cc3)n2)cc1 | 2170 nM
C[C@@H](N)C(=O)Nc1ccc(-c2ccnc(Nc3ccc(N4CCOCC4)cc3)n2)cc1 | 452 nM
CN1CCC[C@@H]1C(=O)Nc1ccc(-c2ccnc(Nc3ccc(N4CCOCC4)cc3)n2)cc1 | 1050 nM

The next lines start with the values.

IC50 | SMILES
795 nM | CC(=O)Nc1ccc(-c2ccnc(Nc3ccc(N4CCOCC4)cc3)n2)cc1
1970 nM | CC(=O)Nc1ccc(-c2ccnc(Nc3ccccc3)n2)cc1
505 nM | CC(=O)Nc1ccc(-c2ccnc(Nc3cccc(NC(=O)c4c(Cl)cccc4Cl)c3)n2)cc1
1330 nM | CC(=O)Nc1ccc(-c2ccnc(Nc3cccc(N4CCCCC4)c3)n2)cc1
591 nM | CC(=O)Nc1ccc(-c2ccnc(Nc3cccc(N4CCOCC4)c3)n2)cc1

Biological target: T2, Tyrosine-protein kinase JAK3 (Homo sapiens, UniProt P52333)
T2 sequence (P52333 whole entry): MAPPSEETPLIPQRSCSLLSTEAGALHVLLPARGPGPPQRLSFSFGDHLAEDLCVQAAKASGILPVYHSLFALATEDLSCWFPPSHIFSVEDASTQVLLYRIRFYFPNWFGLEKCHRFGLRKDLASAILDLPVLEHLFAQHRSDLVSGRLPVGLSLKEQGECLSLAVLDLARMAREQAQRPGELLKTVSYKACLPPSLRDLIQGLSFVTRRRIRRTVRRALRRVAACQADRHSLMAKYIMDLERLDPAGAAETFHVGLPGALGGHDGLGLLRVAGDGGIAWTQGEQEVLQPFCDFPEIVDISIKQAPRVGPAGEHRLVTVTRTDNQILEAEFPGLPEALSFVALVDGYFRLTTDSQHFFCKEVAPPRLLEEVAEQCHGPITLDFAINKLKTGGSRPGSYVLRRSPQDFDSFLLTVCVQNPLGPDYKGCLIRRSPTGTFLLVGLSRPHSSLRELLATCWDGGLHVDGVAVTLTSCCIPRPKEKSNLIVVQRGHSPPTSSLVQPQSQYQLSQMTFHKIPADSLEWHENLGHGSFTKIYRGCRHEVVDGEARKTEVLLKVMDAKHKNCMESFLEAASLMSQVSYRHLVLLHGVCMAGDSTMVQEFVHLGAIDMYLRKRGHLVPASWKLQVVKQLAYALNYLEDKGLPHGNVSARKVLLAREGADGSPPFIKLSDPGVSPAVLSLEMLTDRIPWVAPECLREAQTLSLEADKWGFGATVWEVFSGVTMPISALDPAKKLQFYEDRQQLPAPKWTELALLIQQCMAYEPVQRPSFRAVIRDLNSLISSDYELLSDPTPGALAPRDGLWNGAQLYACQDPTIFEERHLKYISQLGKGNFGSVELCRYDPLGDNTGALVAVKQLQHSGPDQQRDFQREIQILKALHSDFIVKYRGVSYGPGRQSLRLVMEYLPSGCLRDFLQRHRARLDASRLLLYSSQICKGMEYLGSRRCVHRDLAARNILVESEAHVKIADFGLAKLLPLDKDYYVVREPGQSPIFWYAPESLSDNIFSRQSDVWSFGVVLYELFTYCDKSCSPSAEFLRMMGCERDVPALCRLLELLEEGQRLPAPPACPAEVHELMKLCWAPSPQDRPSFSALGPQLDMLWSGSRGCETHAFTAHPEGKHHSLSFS
Conditions: not given

SMILES | IC50
CC(=O)Nc1ccc(-c2cc(Nc3ccc(N4CCOCC4)cc3)ncn2)cc1 | > 980 nM
C[C@H](N)C(=O)Nc1ccc(-c2ccnc(Nc3ccc(N4CCOCC4)cc3)n2)cc1 | 298 nM
N[C@H](CO)C(=O)Nc1ccc(-c2ccnc(Nc3ccc(N4CCOCC4)cc3)n2)cc1 | 160 nM
CC(=O)Nc1ccc(-c2ccnc(NCCCNC(=O)c3c(Cl)cccc3Cl)n2)cc1 | > 5000 nM
CC(=O)Nc1ccc(-c2ccnc(Nc3cccc(NC(=O)c4c(Cl)cccc4Cl)n3)n2)cc1 | > 980 nM
CC(=O)Nc1ccc(-c2nc(Nc3ccc(N4CCOCC4)cc3)ncc2C)cc1 | 105 nM
O=C1CC[C@H](C(=O)Nc2ccc(-c3ccnc(Nc4ccc(N5CCOCC5)cc4)n3)cc2)N1 | 61.7 nM
O=C(Nc1ccc(-c2ccnc(Nc3ccc(N4CCOCC4)cc3)n2)cc1)[C@H]1CCNC1 | 368 nM
CC(=O)Nc1ccc(-c2nc(Nc3ccc(N4CCOCC4)cc3)ncc2F)cc1 | > 980 nM
CC(=O)Nc1ccc(-c2ccnc(NCC3CN(C(=O)c4c(Cl)cccc4Cl)C3)n2)cc1 | 5000 nM
CC(=O)Nc1ccc(-c2nc(Nc3ccc(N4CCOCC4)cc3)ncc2C(F)(F)F)cc1 | > 980 nM
CC(=O)Nc1ccc(-c2cc(C)nc(Nc3ccc(N4CCOCC4)cc3)n2)cc1 | > 980 nM
C[C@@H](N)C(=O)Nc1ccc(-c2ccnc(Nc3ccc(N4CCOCC4)cc3)n2)cc1 | 307 nM
CC(=O)Nc1ccc(-c2ccnc(NC3CCCC(NC(=O)c4c(Cl)cccc4Cl)C3)n2)cc1 (configuration not stated) | > 980 nM
CN1CCC[C@@H]1C(=O)Nc1ccc(-c2ccnc(Nc3ccc(N4CCOCC4)cc3)n2)cc1 | 484 nM

The next lines start with the values.

IC50 | SMILES
> 980 nM | CC(=O)Nc1ccc(-c2ccnc(Nc3cccc(NC(=O)c4ccccc4)c3)n2)cc1
> 980 nM | CC(=O)Nc1ccc(-c2ccnc(Nc3cccc(NC(=O)c4ccccc4Cl)c3)n2)cc1
> 980 nM | CC(=O)Nc1ccc(-c2ccnc(Nc3ccc(N4CCOCC4)cc3)n2)cc1
1150 nM | CC(=O)Nc1ccc(-c2ccnc(Nc3ccccc3)n2)cc1
> 980 nM | CC(=O)Nc1ccc(-c2ccnc(Nc3cccc(NC(=O)c4c(Cl)cccc4Cl)c3)n2)cc1
> 980 nM | CC(=O)Nc1ccc(-c2ccnc(Nc3cccc(N4CCCCC4)c3)n2)cc1
> 980 nM | CC(=O)Nc1ccc(-c2ccnc(Nc3cccc(N4CCOCC4)c3)n2)cc1

Test system: not listed separately
Assay: Selectivity ratio of IC50 for JAK3 to IC50 for JAK2
Conditions: not given

SMILES | Ratio IC50
CC(=O)Nc1ccc(-c2ccnc(Nc3ccc(N4CCOCC4)cc3)n2)cc1 | > 250
CC(=O)Nc1ccc(-c2ccnc(NCCCNC(=O)c3c(Cl)cccc3Cl)n2)cc1 | > 50
